Experimental data reported in the NIST ThermoML archive (doi:10.1016/j.jct.2008.01.007).
Numbers after ± are expanded uncertainties.

Experiment: xn = mol fraction of the nth substance listed
Settings: 101 kPa, Liquid

OCCN1CCOCC1 [4-morpholineethanol] + O
Settings | mass density, 293.15 K [kg/m3] | mass density, 303.15 K [kg/m3] | mass density, 313.15 K [kg/m3] | mass density, 323.15 K [kg/m3] | mass density, 333.15 K [kg/m3] | viscosity, 293.15 K [mPa·s] | viscosity, 303.15 K [mPa·s] | viscosity, 313.15 K [mPa·s] | viscosity, 323.15 K [mPa·s] | viscosity, 333.15 K [mPa·s]
x1 = 0.0628 | 1041.44 ± 2.3 | 1033.11 ± 2.1 | 1024.47 ± 1.9 | 1017.66 ± 1.8 | 1012.27 ± 1.7 | 14.46 ± 1 | 9.721 ± 0.73 | 8.148 ± 0.63 | 6.767 ± 0.54 | 4.413 ± 0.39
x1 = 0.1126 | 1061.42 ± 2.6 | 1052.36 ± 2.5 | 1043.65 ± 2.3 | 1035.57 ± 2.2 | 1029.49 ± 2 | 22.98 ± 1.5 | 18.02 ± 1.2 | 13.55 ± 0.96 | 11.37 ± 0.83 | 9.233 ± 0.7
x1 = 0.1985 | 1078.87 ± 3 | 1069.04 ± 2.8 | 1060.34 ± 2.6 | 1052.34 ± 2.5 | 1044.12 ± 2.3 | 33.29 ± 2.2 | 27.47 ± 1.8 | 22.61 ± 1.5 | 17.84 ± 1.2 | 13.91 ± 0.99
x1 = 0.2466 | 1083.81 ± 3.1 | 1073.73 ± 2.9 | 1065.05 ± 2.7 | 1057.12 ± 2.6 | 1048.47 ± 2.4 | – | – | – | – | –
x1 = 0.2887 | 1086.11 ± 3.1 | 1075.86 ± 2.9 | 1067.22 ± 2.8 | 1059.03 ± 2.6 | 1050.37 ± 2.5 | 39.28 ± 2.6 | 33.52 ± 2.2 | 28.26 ± 1.9 | 23.09 ± 1.6 | 17.82 ± 1.2
x1 = 0.3459 | 1087.54 ± 3.2 | 1077.13 ± 3 | 1068.55 ± 2.8 | 1060.61 ± 2.7 | 1051.89 ± 2.5 | 41.75 ± 2.7 | 35.73 ± 2.3 | 30.86 ± 2 | 25.45 ± 1.7 | 19.93 ± 1.4
x1 = 0.4127 | 1087.67 ± 3.2 | 1077.14 ± 3 | 1068.64 ± 2.8 | 1061.07 ± 2.7 | 1052.63 ± 2.5 | 43.23 ± 2.8 | 37.33 ± 2.4 | 31.64 ± 2.1 | 25.94 ± 1.7 | 20.12 ± 1.4
x1 = 0.4852 | 1086.69 ± 3.2 | 1076.07 ± 3 | 1067.65 ± 2.8 | 1060.28 ± 2.7 | 1052.39 ± 2.5 | 44.02 ± 2.9 | 37.36 ± 2.4 | 31.41 ± 2.1 | 25.4 ± 1.7 | 19.72 ± 1.3
x1 = 0.5438 | 1085.22 ± 3.2 | 1074.56 ± 3 | 1066.2 ± 2.8 | 1058.66 ± 2.7 | 1051.46 ± 2.5 | – | – | – | – | –
x1 = 0.5842 | 1084.37 ± 3.2 | 1073.69 ± 3 | 1065.37 ± 2.8 | 1057.87 ± 2.7 | 1050.71 ± 2.5 | 43.33 ± 2.8 | 36.22 ± 2.4 | 29.62 ± 2 | 23.17 ± 1.6 | 18.58 ± 1.3
x1 = 0.6438 | 1082.81 ± 3.1 | 1072.11 ± 3 | 1063.85 ± 2.8 | 1056.41 ± 2.6 | 1049.64 ± 2.5 | 42.3 ± 2.7 | 34.92 ± 2.3 | 28.05 ± 1.9 | 21.34 ± 1.4 | 16.15 ± 1.1
x1 = 0.6878 | 1081.6 ± 3.1 | 1070.89 ± 2.9 | 1062.67 ± 2.8 | 1055.27 ± 2.6 | 1048.84 ± 2.5 | – | – | – | – | –
x1 = 0.7439 | 1080.31 ± 3.1 | 1069.59 ± 2.9 | 1061.41 ± 2.8 | 1054.22 ± 2.6 | 1047.82 ± 2.5 | 39.78 ± 2.6 | 32.9 ± 2.2 | 25.58 ± 1.7 | 19.58 ± 1.3 | 14.06 ± 1
x1 = 0.8238 | 1078.68 ± 3.1 | 1068.19 ± 2.9 | 1060.06 ± 2.8 | 1053.44 ± 2.6 | 1047.09 ± 2.5 | 36.28 ± 2.4 | 30.25 ± 2 | 23.38 ± 1.6 | 18.01 ± 1.2 | 12.67 ± 0.91
x1 = 0.8846 | 1077.69 ± 3.1 | 1067.27 ± 2.9 | 1059.5 ± 2.8 | 1052.95 ± 2.7 | 1046.7 ± 2.5 | 33.61 ± 2.2 | 27.11 ± 1.8 | 22.16 ± 1.5 | 16.98 ± 1.2 | 11.26 ± 0.82
x1 = 0.9486 | 1077.17 ± 3.1 | 1066.94 ± 3 | 1059.41 ± 2.8 | 1052.79 ± 2.7 | 1046.54 ± 2.6 | – | – | – | – | –
x1 = 1 | 1076.58 ± 3.1 | 1066.51 ± 3 | 1059.19 ± 2.8 | 1052.64 ± 2.7 | 1046.43 ± 2.6 | 26.58 ± 1.8 | 21.99 ± 1.5 | 17.32 ± 1.2 | 12.86 ± 0.92 | 8.284 ± 0.64
